Laboratory results published in US20190099383A1, “Transdermal Delivery of Selexipag Metabolite” (Samos Pharmaceuticals, Inc., priority 2017, published 2019).
Like-named read-outs stand apart in the source and are kept apart here.

How the values were obtained:
[1] = rat; cited from earlier work
[2] = In vitro unenhanced skin flux, Franz diffusion cells; format: in vitro ADME, human; details: 168 hour period, saturated solution in 80/20% ethanol/water, no enhancers
Protocol: All in vitro skin permeation studies are conducted using the PermeGear Membrane Transport System. […] Skin flux studies are run for a period of 168 hours. […] The receiver compartment is refilled with fresh receiver medium.

[3] = Saturation concentration of the drug in the receptor medium; format: physicochemical; details: pH 7.4 water with 0.44 mg/ml OLETH 20
[4] = cited from earlier work
[5] = Formulation B enhancer system, 2, 4, 8, 12 and 24 hour time points (FIG. 1)
Protocol: One skin donor and three diffusion cells per formulation were used in these in vitro skin permeation experiments. Split thickness dermatomed (approximately at 375 μm) human cadaver skin was used to determine the permeation rate of the selexipag metabolite ACT 333679 in vitro. All in vitro skin permeation studies were conducted using the PermeGear Membrane Transport System (PermeGear, Inc., Hellertown, Pa.). Each Membrane Transport System consists of vertical, jacketed (37° C.±0.5° C.) Franz diffusion cells with magnetic stirrer and 1.7 cm^2 diffusion area.
Skin flux studies were run for a period of 48 hours. At predetermined intervals (3, 24 and 48 hours) after starting the experiment, the entire contents of the receiver compartment were collected for determination of the ACT 333679 concentration by HPLC. The receiver compartment was refilled with fresh receiver medium. The receiver medium was pH 7.4 water with 0.44 mg/ml of OLETH 20 (polyethylene glycol ether of oleyl alcohol) with the saturation concentration of the drug in the receptor medium being 0.23 mg/ml or 2 mg total in the receptor phase. […]
One skin donor and three diffusion cells per formulation were used in these in vitro skin permeation experiments. […] Samples in the receptor phase were obtained at the 2, 4, 8, 12 and 24 hour intervals and the amount of selexipag or ACT333679 was determined by HPLC.

prostacyclin IP receptor = prostacyclin IP receptor (Homo sapiens, UniProt P43119); details: ACT 333679 versus selexipag; cited from earlier work
[6] = headache, diarrhea, pain in the jaw, nausea and myalgia; cited from earlier work
carboxylesterases = details: cited from earlier work

Sequence of prostacyclin IP receptor (P43119 whole entry): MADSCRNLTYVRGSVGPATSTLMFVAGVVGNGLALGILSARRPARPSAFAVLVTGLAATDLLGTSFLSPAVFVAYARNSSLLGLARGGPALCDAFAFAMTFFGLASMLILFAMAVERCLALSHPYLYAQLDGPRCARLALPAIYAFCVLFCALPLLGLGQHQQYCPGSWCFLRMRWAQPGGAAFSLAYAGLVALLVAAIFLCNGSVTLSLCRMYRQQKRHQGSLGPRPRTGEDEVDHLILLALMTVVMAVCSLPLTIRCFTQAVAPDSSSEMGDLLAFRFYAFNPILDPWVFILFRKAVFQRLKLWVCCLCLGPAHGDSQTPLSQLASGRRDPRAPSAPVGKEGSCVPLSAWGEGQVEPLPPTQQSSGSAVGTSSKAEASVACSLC

## CC(C)N(CCCCOCC(=O)O)c1cnc(-c2ccccc2)c(-c2ccccc2)n1 [ACT 333679]
[1]
  oral bioavailability: 57%
[2]
  average flux: 2.9 micrograms per square centimeter per hour
[3]
  saturation amount, total in the receptor phase: 2 mg
  saturation concentration of the drug in the receptor medium: 0.23 mg/mL
[4]; presence of food
  effect of presence of food on AUC: 27%
[5]
  permeation through skin compared with selexipag: higher than that of selexipag
Prostacyclin IP receptor
  potency relative to selexipag: at least 16 times

## CC(C)N(CCCCOCC(=O)NS(C)(=O)=O)c1cnc(-c2ccccc2)c(-c2ccccc2)n1 [selexipag]
[2]
  average flux: 1.2 micrograms per square centimeter per hour
[6]
  difference in incidence of side effects between selexipag and placebo: higher than 10%
carboxylesterases; carboxylases present in human plasma
  metabolism of selexipag to ACT 333679: do not metabolize selexipag to ACT 333679
carboxylesterases; human hepatic microsomes
  metabolism of selexipag to ACT 333679: metabolized to ACT 333679 from hepatic microsomes
[4]; oral
  absorption: ~60%
